“Also recorded” adds a separate entry of the source.
How the values were obtained:
reverse transcriptase = reverse transcriptase assay of cell-free supernatant; assay type: cell-based, HIV; conditions: in vitro
Protocol: (§1) Activity was also examined by determination of p24 and reverse transcriptase concentrations.
Reverse transcriptase assays were performed according to the method of Hoffman et al, Virology, 147, 326-335 (1985), with minor modifications. Briefly, 15 µl of cell-free supernatant was mixed with 10 μl of RT reaction buffer. The total 25 μl reaction mixture consisted of 2.5 μCi of tritated thymidine triphosphate (TTP) (ICN, 80 Ci/mmol), poly rA (50 ng/ml):oligo dT (10 ng/ml) template:primer (Pharmacia), 10 mM Tris, pH 7.6, 8 mM magnesium chloride, 10 mM dithiothreitol (DTT), and, in the standard reaction, 0.5% Triton X-100. Assays were performed in the absence of added EGTA unless indicated. When EGTA (Sigma) was added it was at a concentration of 1 mM. The reactions were incubated for 60 minutes at 37° C. The reaction volume was then spotted onto DE81 chromatography paper (Whatman), washed extensively in 5% dibasic sodium phosphate, and counted for incorporated radioactivity in a toluene-based scintillation cocktail. Assays were also performed to measure the presence of a nuclease activity associated with HIV virions. […] The HIV virion sample was added to the AMV RT reaction product and the amount of radioactivity able to bind to DE81 paper was monitored after varying times of incubation at 37° C. […]

HIV [1] = assay: in vitro testing for infectious particles; assay type: cell-based
HIV-1 p24 = assay: p24 antigen-capture assay; assay type: cell-based; conditions: in vitro
Protocol: as §1
To determine p24, a p24 antigen-capture assay was used. Culture fluids harvested from drug test plates or other sources were diluted 1:100 in 10% triton X-100 and stored frozen at -70° C. 200 μL aliquots of the triton treated samples were added in duplicate to microtiter wells previously coated with rabbit polyclonal anti-HIV-1 p24 serum and incubated at room temperature overnight. After washing and blotting, 100 μL of biotinylated polyclonal anti-HIV p-24 was added to each of the appropriate wells, and the plates were re-incubated at 37° C. for 60 minutes. A solution of streptavidin-horseradish peroxidase was added after additional washing and blotting. The contents of each plate were mixed and reincubated for 15 minutes at room temperature and, after washing and blotting, the o-phenylenediamine dihydrochloride substrate was added in 100 μL aliquots. Color was allowed to develop in the dark room at room temperature for 30 minutes, and the reaction was halted by the addition of 4 N H2 SO4. Optical density was measured at 490 nm, and the concentration of p24 was determined by comparison with a standard curve of known concentrations of p24. Eislow, O., et al., J. Nat'l Cancer Inst., 81 (8):577-86 (1989).

HIV [2] = assay: NCI in vitro anti-HIV screen (XTT soluble-formazan assay, protection of HIV-infected CEM cells); assay type: cell-based; conditions: for anti-HIV effect (statement): NCI anti-HIV screen, in vitro, CEM cells
Description: The National Cancer Institute's procedure for testing for agents active against Human Immunodeficiency Virus (HIV) (Weislow, O. W. et al, "New soluble-formazan assay for HIV-1 cytopathic effects: application to high-flux screening of synthetic and natural products for AIDS-antiviral activity," J. Natl. Cancer Inst., 81, 577-586, 1989) is designed to detect agents acting at any stage of the virus reproductive cycle. The assay includes the killing of T4 lymphocytes by HIV. Pursuant to the test, small amounts of HIV are added to cells, and a complete cycle of virus reproduction is necessary to obtain the required cell killing. Agents that interact with virions, cells, or virus gene-products to interfere with viral activities will protect cells from cytolysis. The system is thus designed to detect anti-HIV activity. However, compounds that degenerate or are rapidly metabolized in the culture conditions may not show activity in this screen. All tests are compared with at least one positive (e.g., AZT-treated) control done at the same time under identical conditions.
(§2) 1. The candidate agent is dissolved in dimethyl sulfoxide (unless otherwise instructed), then diluted 1:200 in cell culture medium. Further dilutions (half-log10) are prepared before adding to 96-well microtiter plates.
(§3) 2. T4 lymphocytes (CEM cell line) are exposed to HIV at a virus-to-cell ratio of approximately 0.05 and are plated along with non-infected control cells into drug-containing wells or wells with medium alone.
(§4) 3. Cultures are incubated at 37° in a 5% carbon dioxide atmosphere for 6 days.
(§5) 4. The tetrazolium salt, XTT, is added to all wells, and cultures are incubated to allow formazan color development by viable cells.
(§6) 5. […] are analyzed spectrophotometrically to quantitate formazan production and, in addition, are viewed microscopically for detection of viable cells and confirmation of protective activity.
(§7) 6. Drug-treated virus-infected cells are compared with drug-treated non-infected cells and with other appropriate controls (untreated infected and untreated non-infected cells, drug-containing wells without cells, etc.) on the same plate.
(§8) 7. Data are reviewed in comparison with other tests performed at the same time, and a determination about activity is made.
Approximate values for 50% effective concentration (EC50) (protection in infected cells), 50% inhibitory concentration (IC50) and the therapeutic index (IC50 /EC50) have been calculated for each test and are provided in the tables of each Example.
Examples 1, 6 and 8 compounds, respectively, against the measured test values expressed as a percentage of the uninfected, untreated control values. The solid line depicts the percentage of surviving HIV-infected cells treated with sample (at the indicated concentration) relative to uninfected, untreated controls. The solid line expresses the in vitro anti-HIV activity of the compound of the tested compound. The dashed line depicts the percentage of surviving uninfected cells treated with the compound of the Example relative to the same uninfected, untreated controls. The dashed line expresses the in vitro growth inhibitory properties of the compound of the Example. The viral cytopathic effect of a compound of each Example is indicated by a combination of dashes and dots. […] Survival values of this parameter less then 50% are considered acceptable in the current protocol.

[3] = test system: T4 lymphocytes (CEM cell line); assay: NCI in vitro anti-HIV screen, growth inhibition of uninfected CEM cells (XTT); assay type: cell-based; conditions: Homo sapiens, CCRF-CEM, 144 h, read-out: IC50 (50% inhibitory concentration)
Protocol: The assay includes the killing of T4 lymphocytes by HIV. Pursuant to the test, small amounts of HIV are added to cells, and a complete cycle of virus reproduction is necessary to obtain the required cell killing. Agents that interact with virions, cells, or virus gene-products to interfere with viral activities will protect cells from cytolysis. The system is thus designed to detect anti-HIV activity. However, compounds that degenerate or are rapidly metabolized in the culture conditions may not show activity in this screen. All tests are compared with at least one positive (e.g., AZT-treated) control done at the same time under identical conditions.
as §2, §3, §4, §5, §6, §7, §8
Survival values of this parameter less then 50% are considered acceptable in the current protocol.

CC(C)CCC[C@@H](C)[C@H]1CC[C@H]2[C@@H]3CC[C@H]4C[C@@H](CCC=C(c5cc(Cl)c(O)c(C(=O)O)c5)c5cc(Cl)c(O)c(C(=O)O)c5)CC[C@]4(C)[C@H]3CC[C@]12C [Formula IV, 1,1-di(3'-ammoniumcarboxy-5'-chloro-4'-hydroxy)phenyl-4-(3β)-cholestanyl-1-butene]
reverse transcriptase activity (FIG. 4) (reverse transcriptase): indicating anti-HIV activity | infectious particles (FIG. 2) (HIV [1]): indicating anti-HIV activity | p24 (FIG. 3) (HIV-1 p24): indicating anti-HIV activity | anti-HIV effect (statement) (HIV [2]): greatest effect on inhibiting HIV-infected cells, while having a lesser effect on uninfected cells | anti-HIV effect (statement) (HIV [2]; listed as Cosalane): highly effective anti-HIV agent in vitro; also recorded: most effective compounds studied in terms of prevention of the cytopathic effect of HIV in CEM lymphocytes | EC50 (HIV [2]; read-out: EC50 (50% effective concentration, protection in infected cells), HIV-infected CEM cells, 6 days, XTT, approximate values, one value per run): 6.7 µM | IC50 [3]: > 310 µM

— patent US5439899A, “Cosalane and related compounds having activity against aids and aids-related infections” (priority 1993, dated 1995)
